Laboratory results as given in patent US20210380606A1, “5-AZAINDAZOLE DERIVATIVES AS ADENOSINE RECEPTOR ANTAGONISTS” (Merck Patent GmbH, priority 2018, published 2021).
Like-named read-outs stand apart in the source and are kept apart here.

Legend:
human A2A receptors = molecular target: T1, human A2A receptors (Homo sapiens, UniProt P29274); assay: Functional human A2A receptor activity, recombinant HEK293 cells, cAMP (HTRF); assay type: cell-based
T1 construct: expressed in transfected cells; host or cells: HEK293
T1 sequence (P29274 whole entry): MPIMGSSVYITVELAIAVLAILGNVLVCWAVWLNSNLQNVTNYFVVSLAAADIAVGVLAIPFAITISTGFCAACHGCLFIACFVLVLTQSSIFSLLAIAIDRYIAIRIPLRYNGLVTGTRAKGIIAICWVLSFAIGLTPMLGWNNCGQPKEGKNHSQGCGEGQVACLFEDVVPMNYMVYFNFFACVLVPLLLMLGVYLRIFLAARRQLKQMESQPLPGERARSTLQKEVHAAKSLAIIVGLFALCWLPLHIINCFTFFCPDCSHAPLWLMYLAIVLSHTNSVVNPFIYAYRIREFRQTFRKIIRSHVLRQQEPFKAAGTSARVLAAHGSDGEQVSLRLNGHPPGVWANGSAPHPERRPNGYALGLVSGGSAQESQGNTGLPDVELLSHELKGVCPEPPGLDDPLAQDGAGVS
How it was run: (§1)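 Adenosine receptor activity tracked via second-messenger cAMP; incubation 15 min, then HTRF detection of cellular cAMP.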

human A2B receptors = molecular target: T2, human A2B receptors (Homo sapiens, UniProt P29275); assay: Functional human A2B receptor activity, recombinant HEK293 cells, cAMP (HTRF); assay type: cell-based
T2 construct: expressed in transfected cells; host or cells: HEK293
T2 sequence (P29275 1-332): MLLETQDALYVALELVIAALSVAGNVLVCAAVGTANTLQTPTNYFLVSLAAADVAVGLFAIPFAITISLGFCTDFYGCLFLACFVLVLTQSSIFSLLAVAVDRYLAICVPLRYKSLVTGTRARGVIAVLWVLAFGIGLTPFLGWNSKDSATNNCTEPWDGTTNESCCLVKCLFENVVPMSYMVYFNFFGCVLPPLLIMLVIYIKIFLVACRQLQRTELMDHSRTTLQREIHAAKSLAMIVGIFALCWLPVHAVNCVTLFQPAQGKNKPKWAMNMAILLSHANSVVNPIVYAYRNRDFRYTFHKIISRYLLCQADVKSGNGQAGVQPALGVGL
How it was run: as §1

SMILES | IC50 (human A2A receptors; read-out: A2A (Category)) | IC50 (human A2B receptors; read-out: A2B (Category)) | IC50 (human A2A receptors; read-out: Functional A2A receptor activity, HEK293, cAMP, IC50) | IC50 (human A2B receptors; read-out: Functional A2B receptor activity HEK293, cAMP IC50)
CS(=O)(=O)Cn1nc(-c2coc3ccccc23)c2cnc(C(=O)N3CCCC(F)(F)C3)cc21 [Compound 39, (3-Benzofuran-3-yl-1-methanesulfonylmethyl-1H-pyrazolo[4,3-c]pyridin-6-yl)-(3,3-difluoro-piperidin-1-yl)-methanone] | < 0.1 µM | < 0.1 µM | – | –
CS(=O)(=O)Cn1nc(-c2cnc3c(F)cc(F)cn23)c2cnc(C(=O)N3CC4CCC(C3)O4)cc21 [Compound 27, [3-(6,8-Difluoro-imidazo[1,2-a]pyridin-3-yl)-1-methanesulfonylmethyl-1H-pyrazolo[4,3 c]pyridin-6-yl]-(8-oxa-3-aza-bicyclo[3.2.1]oct-3-yl)-methanone] | < 0.1 µM | < 1 µM | – | –
CC(C)CC1CN(C(=O)c2cc3c(cn2)c(-c2cnc4c(F)cc(F)cn24)nn3CC(F)(F)F)CCC1O (stereo not shown) [Compound 143, [3-(6,8-Difluoro-imidazo[1,2-a]pyridin-3-yl)-1-(2,2,2-trifluoro-ethyl)-1H-pyrazolo[4,3-c]pyridin-6-yl]-(4-hydroxy-3-isobutyl-piperidin-1-yl)-methanone] | < 0.1 µM | < 1 µM | – | –
O=C(c1cc2c(cn1)c(-c1cnc3c(F)cc(F)cn13)nn2CC(F)(F)F)N1CC2CCC(C1)O2 [Compound 83, [3-(6,8-Difluoro-imidazo[1,2-a]pyridin-3-yl)-1-(2,2,2-trifluoro-ethyl)-1H-pyrazolo[4,3c]pyridin-6-yl]-(8-oxa-3-aza-bicyclo[3.2.1]oct-3-yl)-methanone] | < 0.1 µM | < 1 µM | – | –
CC(C)(C)OC(=O)N1CC2CC1CN2C(=O)c1cc2c(cn1)c(-c1cnc3c(F)cc(F)cn13)nn2CC(F)(F)F (stereo not shown) [Compound 194, 5-[3-(6,8-Difluoro-imidazo[1,2-a]pyridin-3-yl)-1-(2,2,2-trifluoro-ethyl)-1H-pyrazolo[4,3-c]pyridine-6-carbonyl]-2,5-diaza-bicyclo[2.2.1]heptane-2-carboxylic Acid Tert-Butyl Ester] | < 0.1 µM | < 0.1 µM | – | –
CC(C)N(C(=O)c1cc2c(cn1)c(-c1coc3ccccc13)nn2CC(F)(F)F)C(C)C [Compound 233, 3-(benzofuran-3-yl)-N,N-diisopropyl-1-(2,2,2-trifluoroethyl)pyrazolo[4,3-c]pyridine-6-carboxamide] | < 0.1 µM | < 1 µM | – | –
O=C(c1cc2c(cn1)c(-c1c[nH]c3ccccc13)nn2CC(F)(F)F)N1CC2CCC(C1)O2 [Compound 243, [3-(1H-indol-3-yl)-1-(2,2,2-trifluoroethyl)pyrazolo[4,3-c]pyridin-6-yl]-(8-oxa-3-azabicyclo[3.2.1]octan-3-yl)methanone] | < 0.1 µM | < 1 µM | – | –
O=C(c1cc2c(cn1)c(-c1cnn3ccccc13)nn2CC(F)(F)F)N1CC2CCC(C2)C1 [Compound 102, (3-Aza-bicyclo[3.2.1]oct-3-yl)-[3-pyrazolo[1,5-a]pyridin-3-yl-1-(2,2,2-trifluoro-ethyl)-1H-pyrazolo[4,3-c]pyridin-6-yl]-methanone] | < 0.1 µM | < 0.1 µM | – | –
CCN(C(=O)c1cc2c(cn1)c(-c1coc3ccccc13)nn2CC(F)(F)F)C1CCCCC1 [Compound 235, 3-(benzofuran-3-yl)-N-cyclohexyl-N-ethyl-1-(2,2,2-trifluoroethyl)pyrazolo[4,3-c]pyridine-6-carboxamide] | < 0.1 µM | < 1 µM | – | –
CS(=O)(=O)Cn1nc(-c2coc3ccccc23)c2cnc(C(=O)N3[C@@H]4CC[C@H]3C[C@@H](O)C4)cc21 [Compound 37, [3-(benzofuran-3-yl)-1-(methylsulfonylmethyl)pyrazolo[4,3-c]pyridin-6-yl]-(3-endo-hydroxy-8-azabicyclo[3.2.1]octan-8-yl)methanone] | < 0.1 µM | < 0.1 µM | – | –
O=C(c1ccc2c(-c3cnc4c(F)cc(F)cn34)nn(CC(F)(F)F)c2c1)N1CCCCCC1 [analogue to No. 60, reference compound] | – | – | < 0.1 µM | < 1 µM
